Experimental findings from publication PMC10746543, “Design principles for cyclin K molecular glue degraders” (Nature Chemical Biology, 2023) are described below.

“And” between values parts separate entries of the source, which are not always exact repeats. Equal entries are not always repeated.

The target in one experiment is T1, CDK12–cyclin K and DDB1 (Homo sapiens, UniProt Q16531+Q9NYV4, K965R).
T1 construct: His6–CDK12 (a.a. 713–1,052); full-length or beta-propeller B domain deletion (ΔBPB: a.a. 396–705 deleted) constructs of His6–DDB1ΔBPB, StrepII–Avi–DDB1, or His6–Spy–DDB1; made in house; host or cells: Trichoplusia ni High Five insect cells (baculovirus)
The experiment in a line: TR-FRET ternary complex formation assay (compound titration). Type of experiment: binding. The conditions noted are these: for TR-FRET signal at compound concentration: replicate titrations. An outline of the steps:
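Delayed (70 μs) time-resolved read; FRET computed as 520 nm over 490 nm emission.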

The next experiment deals with T2, CDK12 (Homo sapiens, UniProt Q16531+Q9NYV4).
T2 construct: endogenous in cells; host or cells: MDA-MB-231
T2 sequence (Q9NYV4 whole entry): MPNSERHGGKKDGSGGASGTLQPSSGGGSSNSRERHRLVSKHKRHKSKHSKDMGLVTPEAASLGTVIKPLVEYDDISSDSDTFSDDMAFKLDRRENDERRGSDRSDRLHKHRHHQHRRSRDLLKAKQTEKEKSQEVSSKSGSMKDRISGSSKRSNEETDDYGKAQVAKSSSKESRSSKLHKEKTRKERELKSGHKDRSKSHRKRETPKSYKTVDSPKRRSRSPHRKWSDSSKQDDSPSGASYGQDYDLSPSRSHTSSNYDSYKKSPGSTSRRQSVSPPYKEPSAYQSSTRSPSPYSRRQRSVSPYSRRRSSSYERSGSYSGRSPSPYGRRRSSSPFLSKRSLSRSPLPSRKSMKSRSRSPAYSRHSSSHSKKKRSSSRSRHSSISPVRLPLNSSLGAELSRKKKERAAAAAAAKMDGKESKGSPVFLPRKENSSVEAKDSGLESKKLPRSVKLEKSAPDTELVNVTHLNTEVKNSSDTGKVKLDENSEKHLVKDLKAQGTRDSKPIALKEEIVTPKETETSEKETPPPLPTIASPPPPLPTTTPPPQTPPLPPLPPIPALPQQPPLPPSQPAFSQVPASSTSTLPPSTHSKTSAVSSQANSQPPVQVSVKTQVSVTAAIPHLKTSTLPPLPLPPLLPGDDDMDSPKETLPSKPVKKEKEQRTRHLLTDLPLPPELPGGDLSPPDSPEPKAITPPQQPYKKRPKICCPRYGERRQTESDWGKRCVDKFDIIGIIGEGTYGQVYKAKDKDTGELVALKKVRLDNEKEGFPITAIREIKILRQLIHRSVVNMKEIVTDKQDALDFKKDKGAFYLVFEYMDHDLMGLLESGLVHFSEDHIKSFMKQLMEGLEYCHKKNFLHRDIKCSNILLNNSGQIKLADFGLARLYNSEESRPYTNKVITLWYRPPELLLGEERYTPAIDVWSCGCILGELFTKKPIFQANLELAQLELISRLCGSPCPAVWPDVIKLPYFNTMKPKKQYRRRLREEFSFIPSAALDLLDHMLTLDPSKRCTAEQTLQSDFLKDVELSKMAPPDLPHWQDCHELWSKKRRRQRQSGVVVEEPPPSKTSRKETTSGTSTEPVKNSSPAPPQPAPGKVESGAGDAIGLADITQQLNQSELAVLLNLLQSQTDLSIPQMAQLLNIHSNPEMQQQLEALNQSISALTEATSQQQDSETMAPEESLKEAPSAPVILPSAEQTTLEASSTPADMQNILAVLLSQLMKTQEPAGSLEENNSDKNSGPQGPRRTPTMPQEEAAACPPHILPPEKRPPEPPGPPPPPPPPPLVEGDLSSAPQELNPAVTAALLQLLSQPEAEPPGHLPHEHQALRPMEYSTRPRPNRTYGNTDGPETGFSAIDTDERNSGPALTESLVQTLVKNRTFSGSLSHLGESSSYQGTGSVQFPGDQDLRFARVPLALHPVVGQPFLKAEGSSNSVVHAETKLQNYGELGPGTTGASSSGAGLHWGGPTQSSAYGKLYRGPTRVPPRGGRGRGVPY
T2 sequence (O75909 whole entry partner): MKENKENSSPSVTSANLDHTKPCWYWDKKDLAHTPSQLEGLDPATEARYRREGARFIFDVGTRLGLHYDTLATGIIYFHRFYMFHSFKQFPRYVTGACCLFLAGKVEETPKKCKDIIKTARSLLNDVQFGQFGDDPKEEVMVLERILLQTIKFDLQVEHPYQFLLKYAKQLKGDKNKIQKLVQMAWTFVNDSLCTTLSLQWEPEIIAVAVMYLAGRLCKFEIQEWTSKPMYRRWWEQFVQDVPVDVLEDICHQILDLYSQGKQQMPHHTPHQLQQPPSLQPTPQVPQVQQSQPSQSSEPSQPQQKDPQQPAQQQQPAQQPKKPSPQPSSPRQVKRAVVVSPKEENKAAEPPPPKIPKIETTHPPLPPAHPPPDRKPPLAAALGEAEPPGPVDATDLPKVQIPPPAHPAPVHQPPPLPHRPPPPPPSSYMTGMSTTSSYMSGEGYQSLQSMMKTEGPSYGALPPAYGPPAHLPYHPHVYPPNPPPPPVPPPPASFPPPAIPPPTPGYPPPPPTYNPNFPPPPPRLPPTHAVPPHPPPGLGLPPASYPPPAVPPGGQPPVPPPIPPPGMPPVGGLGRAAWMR
T2 sequence (Q16531 2-1140 limits assumed): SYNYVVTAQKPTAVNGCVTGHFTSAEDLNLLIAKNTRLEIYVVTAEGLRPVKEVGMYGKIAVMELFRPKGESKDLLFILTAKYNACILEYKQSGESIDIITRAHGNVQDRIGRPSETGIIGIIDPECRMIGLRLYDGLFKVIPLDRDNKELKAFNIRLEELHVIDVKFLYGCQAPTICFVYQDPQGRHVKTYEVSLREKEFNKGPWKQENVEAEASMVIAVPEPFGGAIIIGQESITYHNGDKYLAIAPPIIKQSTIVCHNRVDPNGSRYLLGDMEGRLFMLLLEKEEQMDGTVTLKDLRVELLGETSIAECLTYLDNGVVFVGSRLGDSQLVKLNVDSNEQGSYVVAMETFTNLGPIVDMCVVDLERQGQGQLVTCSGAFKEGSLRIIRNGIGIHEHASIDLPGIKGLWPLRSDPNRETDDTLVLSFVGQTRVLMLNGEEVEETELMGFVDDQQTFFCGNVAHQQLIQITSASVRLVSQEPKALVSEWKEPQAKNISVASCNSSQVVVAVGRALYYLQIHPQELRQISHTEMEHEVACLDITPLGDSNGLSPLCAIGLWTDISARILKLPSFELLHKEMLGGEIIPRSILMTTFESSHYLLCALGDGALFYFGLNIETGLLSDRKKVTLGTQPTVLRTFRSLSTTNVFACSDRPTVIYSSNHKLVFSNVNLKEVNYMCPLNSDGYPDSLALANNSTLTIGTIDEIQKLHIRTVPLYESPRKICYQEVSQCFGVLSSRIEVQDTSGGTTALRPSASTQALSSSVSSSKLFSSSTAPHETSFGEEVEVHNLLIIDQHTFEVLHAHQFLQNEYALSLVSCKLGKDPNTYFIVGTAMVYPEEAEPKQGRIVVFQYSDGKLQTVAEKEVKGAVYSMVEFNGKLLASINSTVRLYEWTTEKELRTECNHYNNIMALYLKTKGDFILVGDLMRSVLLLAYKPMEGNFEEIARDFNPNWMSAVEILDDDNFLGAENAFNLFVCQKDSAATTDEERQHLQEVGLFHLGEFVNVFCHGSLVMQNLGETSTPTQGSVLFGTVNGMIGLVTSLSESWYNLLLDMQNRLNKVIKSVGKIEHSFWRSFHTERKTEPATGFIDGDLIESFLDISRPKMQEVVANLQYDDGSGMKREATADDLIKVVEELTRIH
The experiment in a line: Label-free quantitative mass spectrometry in MDA-MB-231 cells, CDK12. It is filed as cell-based. The method, then: (§1) MDA-MB-231 cells were treated with DMSO or a cyclin K degrader compound at 1 µM for 5 h. Cells were collected by centrifugation and washed with phosphate-buffered saline before snap freezing in liquid nitrogen. Cells were lysed by addition of lysis buffer (8 M urea, 50 mM NaCl, 50 mM 4-(2-hydroxyethyl)-1-piperazineethanesulfonic acid (EPPS) pH 8.5, and protease and phosphatase inhibitors) and homogenization by bead beating (BioSpec) for three repeats of 30 s at 2,400 rpm. Bradford assay was used to determine the final protein concentration in the clarified cell lysate. Then 50 µg of protein for each sample was reduced, alkylated and precipitated using methanol/chloroform as previously described, and the resulting washed precipitated protein was allowed to air dry. Precipitated protein was resuspended in 4 M urea, 50 mM HEPES pH 7.4, followed by dilution to 1 M urea with the addition of 200 mM EPPS, pH 8. Proteins were first digested with LysC (1:50; enzyme:protein) for 12 h at room temperature. The LysC digestion was diluted to 0.5 M urea with 200 mM EPPS pH 8 followed by digestion with trypsin (1:50; enzyme:protein) for 6 h at 37 °C. Sample digests were acidified with formic acid to a pH of 2–3 before desalting using C18 solid phase extraction plates (SOLA, Thermo Fisher Scientific). Desalted peptides were dried in a vacuum-centrifuged and reconstituted in 0.1% formic acid for liquid chromatography–mass spectrometry analysis.
(§2) Data were collected using a TimsTOF Pro2 (Bruker Daltonics) coupled to a nanoElute LC pump (Bruker Daltonics) via a CaptiveSpray nano-electrospray source. Peptides were separated on a reversed-phase C18 column (25 cm × 75 µm inner diameter, […], IonOpticks) containing an integrated captive spray emitter. Peptides were separated using a 50 min gradient of 2–30% buffer B (acetonitrile in 0.1% formic acid) with a flow rate of 250 nl min^−1 and column temperature maintained at 50 °C.
(§3) Data-dependent acquisition (DDA) was performed in Parallel Accumulation-Serial Fragmentation (PASEF) mode to determine effective ion mobility windows for downstream diaPASEF data collection. The ddaPASEF parameters included: 100% duty cycle using accumulation and ramp times of 50 ms each, one Trapped Ion Mobility Spectrometry(TIMS)-MS scan and ten PASEF ramps per acquisition cycle. The TIMS-MS survey scan was acquired between 100 m/z and 1,700 m/z and 1/K0 of 0.7–1.3 V s cm^−2. Precursors with one to five charges were selected, and those that reached an intensity threshold of 20,000 arbitrary units were actively excluded for 0.4 min. The quadrupole isolation width was set to 2 m/z for m/z < 700 and 3 m/z for m/z > 800, with the m/z between 700 m/z and 800 m/z being interpolated linearly. […] To perform diaPASEF, the precursor distribution in the DDA m/z-ion mobility plane was used to design an acquisition scheme for data-independent acquisition (DIA) data collection that included two windows in each 50 ms diaPASEF scan. Data were acquired using 16 of these 25 Da precursor double window scans (creating 32 windows) that covered the diagonal scan line for doubly and triply charged precursors, with singly charged precursors able to be excluded by their position in the m/z-ion mobility plane. These precursor isolation windows were defined between 400 m/z and 1,200 m/z and 1/K0 of 0.7–1.3 V s cm^−2.
(§4) DirectDIA mode includes first extracting the DIA data into a collection of MS2 spectra which are searched using Spectronaut’s Pulsar search engine. The search results are then used to generate a spectral library which is then employed for the targeted analysis of the DIA data. MS/MS spectra were searched against a Swissprot human database (January 2021). Database search criteria largely followed the default settings for directDIA including: tryptic with two missed cleavages, fixed carbomidomethylation of cysteine, and variable oxidation of methionine and acetylation of protein N-termini and precursor Q-value (FDR) cut-off of 0.01. […]

A further experiment addresses T3, CDK13 (Homo sapiens, UniProt Q14004+Q16531).
T3 construct: endogenous in cells; host or cells: MDA-MB-231
The experiment in a line: Label-free quantitative mass spectrometry in MDA-MB-231 cells, CDK13. Type of experiment: cell-based. Here is the method:
as §1, §2, §3, §4

Setting [1] is: compound concentration 62.6401 nM.
Setting [2] is: compound concentration 125.28 nM.
[3] abbreviates: compound concentration 244.8 nM.
Where [4] appears, read: compound concentration 993.601 nM.
The mark [5] stands for this setting: compound concentration 2001.6 nM.
Setting [6] is: label-free quantitative MS, replicate values.
The mark [7] stands for this setting: normalised to DMSO = 1, replicate values.

T3 sequence (Q14004 whole entry): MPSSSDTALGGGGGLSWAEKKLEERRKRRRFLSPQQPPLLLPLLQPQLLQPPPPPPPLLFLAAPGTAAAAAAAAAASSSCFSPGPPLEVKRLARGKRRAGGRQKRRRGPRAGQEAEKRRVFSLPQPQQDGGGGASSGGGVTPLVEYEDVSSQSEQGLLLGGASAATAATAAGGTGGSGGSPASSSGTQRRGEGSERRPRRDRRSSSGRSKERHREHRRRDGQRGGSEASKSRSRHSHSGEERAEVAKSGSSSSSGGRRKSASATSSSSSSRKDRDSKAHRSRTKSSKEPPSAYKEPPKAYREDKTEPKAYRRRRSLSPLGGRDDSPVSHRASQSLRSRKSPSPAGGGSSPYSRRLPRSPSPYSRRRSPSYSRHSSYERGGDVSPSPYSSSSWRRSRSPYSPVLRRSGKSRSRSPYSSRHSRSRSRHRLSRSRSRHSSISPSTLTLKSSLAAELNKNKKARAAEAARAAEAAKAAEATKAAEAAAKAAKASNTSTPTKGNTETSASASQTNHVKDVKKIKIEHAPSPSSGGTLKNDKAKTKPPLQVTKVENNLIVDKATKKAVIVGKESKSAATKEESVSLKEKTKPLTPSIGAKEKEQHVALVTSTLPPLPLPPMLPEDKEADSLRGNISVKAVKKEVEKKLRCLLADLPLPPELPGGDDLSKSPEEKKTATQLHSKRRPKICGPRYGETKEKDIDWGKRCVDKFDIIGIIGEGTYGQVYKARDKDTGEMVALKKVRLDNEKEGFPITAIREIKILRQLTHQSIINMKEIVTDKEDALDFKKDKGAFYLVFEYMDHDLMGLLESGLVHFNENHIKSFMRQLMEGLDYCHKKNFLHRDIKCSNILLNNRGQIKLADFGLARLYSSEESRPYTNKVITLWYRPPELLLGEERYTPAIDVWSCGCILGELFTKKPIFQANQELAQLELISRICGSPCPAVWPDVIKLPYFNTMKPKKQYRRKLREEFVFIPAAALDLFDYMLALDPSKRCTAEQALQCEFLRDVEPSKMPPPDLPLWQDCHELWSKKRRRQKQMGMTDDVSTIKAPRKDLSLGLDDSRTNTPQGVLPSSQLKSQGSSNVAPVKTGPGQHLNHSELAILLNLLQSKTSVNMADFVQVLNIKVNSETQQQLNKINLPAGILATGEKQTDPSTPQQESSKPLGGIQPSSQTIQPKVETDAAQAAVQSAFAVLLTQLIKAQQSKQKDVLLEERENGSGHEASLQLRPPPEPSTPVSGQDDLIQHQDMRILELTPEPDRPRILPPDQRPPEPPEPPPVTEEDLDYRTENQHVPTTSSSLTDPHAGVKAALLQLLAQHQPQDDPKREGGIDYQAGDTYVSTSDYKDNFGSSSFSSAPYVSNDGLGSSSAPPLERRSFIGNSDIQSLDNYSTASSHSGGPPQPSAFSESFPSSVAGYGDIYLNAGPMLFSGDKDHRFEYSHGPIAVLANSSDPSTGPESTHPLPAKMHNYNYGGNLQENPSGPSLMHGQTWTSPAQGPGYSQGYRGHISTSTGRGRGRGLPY
T3 sequence (O75909 whole entry partner): as the sequence (O75909 whole entry partner) above
T3 sequence (Q16531 2-1140 limits assumed): as the sequence (Q16531 2-1140 limits assumed) above

On to `CCC(CO)Nc1nc(NCc2ccc(-c3ccccn3)cc2)c2ncn(C(C)C)c2n1` (stereo not drawn) [CR8, reference compound], for which the “TR-FRET signal, individual replicate” value on CDK12–cyclin K and DDB1 (setting [1]) is 3.992 and 3.667 and 3.67 (2×) and 3.796 and 3.836 and 3.683 and 3.652; on CDK12–cyclin K and DDB1 (setting [2]), 4.095 and 3.873 and 3.877 and 4.034 and 3.962 and 3.842 and 3.836 and 3.935; on CDK12–cyclin K and DDB1 (setting [3]) it was 4.223 and 4.06 and 4.046 and 4.132 and 4.096 and 3.922 and 3.897 and 4.118; at CDK12–cyclin K and DDB1 (setting [4]) it was 4.301 and 4.232 and 4.095 and 4.244 and 4.268 and 3.98 and 3.937 and 4.179; on CDK12–cyclin K and DDB1 (setting [5]) it was 4.322 and 4.194 and 4.162 and 4.144 and 4.309 and 4.034 and 4.299. For the same compound, the “TR-FRET signal at compound concentration 62.6401 nM” value at CDK12–cyclin K and DDB1 (compound concentration 62.6401 nM, raw replicate titration data) is 3.992 and 3.667 and 3.67 (2×) and 3.796 and 3.836 and 3.683 and 3.652 and 3.6831 and 3.54 and 3.542 and 3.62 and 3.792 and 3.69 and 3.855 and 3.914 and 3.849 and 3.7896; on CDK12–cyclin K and DDB1 (compound concentration 62.6401 nM, raw titration data) it was 3.992 and 3.667 and 3.67 (2×) and 3.796 and 3.836 and 3.683 and 3.652 and 3.6831 and 3.54 and 3.542 and 3.62 and 3.792 and 3.69 and 3.855 and 3.914 and 3.849 and 3.7896. Further, the “TR-FRET signal at compound concentration” value on CDK12–cyclin K and DDB1 (setting [1]) was 3.992 and 3.667 and 3.67 (2×) and 3.796 and 3.836 and 3.683 and 3.652; on CDK12–cyclin K and DDB1 (setting [2]), 4.095 and 3.873 and 3.877 and 4.034 and 3.962 and 3.842 and 3.836 and 3.935; at CDK12–cyclin K and DDB1 (setting [3]), 4.223 and 4.06 and 4.046 and 4.132 and 4.096 and 3.922 and 3.897 and 4.118; at CDK12–cyclin K and DDB1 (setting [4]) it was 4.301 and 4.232 and 4.095 and 4.244 and 4.268 and 3.98 and 3.937 and 4.179; at CDK12–cyclin K and DDB1 (setting [5]), 4.322 and 4.194 and 4.162 and 4.144 and 4.309 and 4.034 and 4.299. Besides, the “TR-FRET signal at compound concentration 125.28 nM” value at CDK12–cyclin K and DDB1 (compound concentration 125.28 nM, raw replicate titration data) is 4.095 and 3.873 and 3.877 and 4.034 and 3.962 and 3.842 and 3.836 and 3.935 and 3.986 and 3.722 and 3.719 and 3.7404 and 3.636 and 3.869 and 4.026 and 4.013 and 4.003 and 3.8874; on CDK12–cyclin K and DDB1 (compound concentration 125.28 nM, raw titration data), 4.095 and 3.873 and 3.877 and 4.034 and 3.962 and 3.842 and 3.836 and 3.935 and 3.986 and 3.722 and 3.719 and 3.7404 and 3.636 and 3.869 and 4.026 and 4.013 and 4.003 and 3.8874. Moreover, the “TR-FRET signal at compound concentration 244.8 nM” value on CDK12–cyclin K and DDB1 (compound concentration 244.8 nM, raw replicate titration data) was 4.223 and 4.06 and 4.046 and 4.132 and 4.096 and 3.922 and 3.897 and 4.118 and 4.095 and 3.806 and 3.805 and 3.852 and 3.955 and 3.967 and 4.129 and 4.013 and 4.0726 and 3.918; at CDK12–cyclin K and DDB1 (compound concentration 244.8 nM, raw titration data), 4.223 and 4.06 and 4.046 and 4.132 and 4.096 and 3.922 and 3.897 and 4.118 and 4.095 and 3.806 and 3.805 and 3.852 and 3.955 and 3.967 and 4.129 and 4.013 and 4.0726 and 3.918. Also, the “TR-FRET signal at compound concentration 993.601 nM” value was 4.301 and 4.232 and 4.095 and 4.244 and 4.268 and 3.98 and 3.937 and 4.179 and 4.188 and 3.896 and 3.831 and 3.928 and 4.083 and 4.021 and 4.231 and 4.144 and 3.981 on CDK12–cyclin K and DDB1 (compound concentration 993.601 nM, raw replicate titration data); 4.301 and 4.232 and 4.095 and 4.244 and 4.268 and 3.98 and 3.937 and 4.179 and 4.188 and 3.896 and 3.831 and 3.928 and 4.083 and 4.021 and 4.231 and 4.144 and 3.981 on CDK12–cyclin K and DDB1 (compound concentration 993.601 nM, raw titration data). Besides, the “TR-FRET signal at compound concentration 2001.6 nM” value on CDK12–cyclin K and DDB1 (compound concentration 2001.6 nM, raw replicate titration data) was 4.322 and 4.194 and 4.162 and 4.144 and 4.309 and 4.034 and 4.299 and 4.197 and 3.982 and 3.892 and 3.93 and 4.094 and 4.059 and 4.292 and 4.196 and 4.177 and 4.087; at CDK12–cyclin K and DDB1 (compound concentration 2001.6 nM, raw titration data) it was 4.322 and 4.194 and 4.162 and 4.144 and 4.309 and 4.034 and 4.299 and 4.197 and 3.982 and 3.892 and 3.93 and 4.094 and 4.059 and 4.292 and 4.196 and 4.177 and 4.087. Besides, the CDK12 peptide count at CDK12 (setting [6]) was 540.299 and 612.59. On CDK12 (setting [7]), the “CDK12 peptide count (DMSO-normalised)” value was 0.6003 and 0.6327. For the same compound, the CDK13 peptide count on CDK13 (setting [6]) was 225.708 and 137.684. The “CDK13 peptide count (DMSO-normalised)” value on CDK13 (setting [7]) was 0.3358 and 0.2116.
